Results published in patent US20260078120A1, “SUBSTITUTED PYRIDOPYRIMIDINONES” (MIRATI THERAPEUTICS, INC., priority 2022, published 2026).

What was measured:
Assay type in all cases: cell-based
[1] = tested on: SKBR3 (PI3Kα wild type) cells; assay: Inhibition of pAKT formation, alphaLISA SureFire Ultra AKT 1/2/3 (pS473), SKBR3 cells; conditions: Homo sapiens, SK-BR-3; Inhibition of pAKT in SKBR3 (PI3Kα wild type) cells; read-out: SKBR3 (WT) pAKT IC50 (nM) (H1047R mutant) IC50
Procedure: (§1) The ability of a compound of Formula (I) to inhibit the formation of pAKT was measured using alphaLISA Surefire Ultra AKT 1/2/3 (pS473) Assay Kit (#ALSU-PAKT-B50K) was obtained from Perkin Elmer (Waltham, MA).
(§2) To prepare assay plates for pAKT alphaLISA assays, cells were trypsinized, resuspended in fresh media, and viable cells were counted utilizing trypan blue exclusion. Prior to seeding, cells were washed with PBS and resuspended in HBSS (Gibco, #14025092). T47D (12,000/w), SKBR3(12,000/w), or MKN1(24,000/w) cells were seeded at 12 μl per well in a solid white flat bottom 384 cell culture plate (Perkin Elmer #6007680).
(§3) Immediately after seeding, cells were dosed using an Echo Liquid Handler (Beckman Coulter) with compounds at a […] starting concentration and serially diluted (1:4) for a total of 10 concentrations. […] Cells were incubated with the compounds (solubilized in DMSO) for approximately one hour or 24 hours at 37° C. After one hour (or 24 hours) of treatment, cells were lysed with 3 μl of the 5× lysis buffer (provided and incubated at room temperature for 15 min on a microtiter plate shaker). Once cells were sufficiently lysed, 7.5 μl of the acceptor bead mix (made using the manufacturers recommended dilutions) was added to each well and left on the microtiter plate shaker for 1 min prior to incubating plates at room temperature for one hour, in the absence of light. After one hour of incubation with the acceptor bead mix, 7.5 μl of the donor bead mix (made using the manufacturers recommended dilutions) was added to each well and left on the microtiter plate shaker for 1 min prior to incubating plates at room temperature overnight in the absence of light. Plates were then imaged the following day using a CLARIOstar microplate reader (BMG Labtech, Germany).
(§4) Percent of control values were calculated by subtracting the average signal from the positive control (alpelisib) treated wells from all treated wells (including DMSO control wells) and then divided by the average signal from the vehicle DMSO treated control wells. Percent of vehicle control values were plotted as log (inhibitor) vs. response-Variable slope (four parameters) for curve fitting and IC50 values were determined using XLfit.
(§5) Key: N.D. =not determined

[2] = tested on: MKN1 (PI3Kα E545K mutant) cells; assay: Inhibition of pAKT formation, alphaLISA SureFire Ultra AKT 1/2/3 (pS473), MKN1 cells; conditions: Homo sapiens
Procedure: as §1, §2, §3, §4, §5

[3] = tested on: T47D (PI3Kα H1047R mutant) cells; assay: Inhibition of pAKT formation, alphaLISA SureFire Ultra AKT 1/2/3 (pS473), T47D cells; conditions: Homo sapiens, T47D
How it was run: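 T47D cells (12,000/well) in HBSS were dosed with compound at 10 concentrations (10.4 μM top, 1:4 dilutions) for about 1 h or 24 h at 37 °C, then lysed. pS473 AKT was read by alphaLISA. Signals were normalized to alpelisib and DMSO controls, and IC50 came from a four-parameter fit.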

[4] = tested on: MKN1 (PI3Kα E545K mutant) cells; assay: CellTiter-Glo 2.0 luminescent cell viability assay, 72 hours, MKN1 cells; conditions: Homo sapiens
Procedure: This Example illustrates that exemplary compounds of the present invention decrease the viability of cells.
The ability of a compound of Formula (I) to decrease the viability of cells was measured using CellTiter-Glo 2.0 (CTG) Luminescent Cell Viability Assay (#G9241) obtained from Promega (Madison, WI).
To prepare assay plates for viability assays, cells were trypsinized, resuspended in fresh media, and viable cells were counted utilizing trypan blue exclusion. T47D, SKBR3, or MKN1 cells were seeded at 1000 cells in 30 μl per well in a solid white flat bottom 384 cell culture plate (Perkin Elmer #6007680) and incubated at 37° C. overnight.
Assay day 1, cells were dosed using an Echo Liquid Handler (Beckman Coulter) with compounds at a 10 um starting concentration and serially diluted (1:4) for a total of 10 concentrations. Cells were incubated for approximately 72 hours with the compounds (solubilized in DMSO) at 37° C. After 72 hours of treatment, cell plates were equilibrated to room temperature before adding 15 μl of CTG to each well, plates were then covered in aluminum foil to protect from light, incubated at room temperature for 30 minutes on a microtiter plate shaker, and luminescence readings were collected using a CLARIOstar microplate reader (BMG Labtech, Germany). Percent of vehicle control values were plotted as log (inhibitor) vs. response-Variable slope (four parameters) for curve fitting and IC50 values were determined using XLfit.

[5] = tested on: T47D (PI3Kα H1047R mutant) cells; assay: CellTiter-Glo 2.0 luminescent cell viability assay, 72 hours, T47D cells; conditions: Homo sapiens, T47D, 72 h
How it was run: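 Cells seeded at 1000 per well overnight were dosed with a 10-concentration, 1:4 series starting at 10 µM and incubated ~72 h at 37° C. Viability was read by CellTiter-Glo 2.0 luminescence after 30 min at room temperature. IC50 came from four-parameter fits of percent vehicle control.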

[6] = tested on: SKBR3 (PI3Kα wild type) cells; assay: CellTiter-Glo 2.0 luminescent cell viability assay, 72 hours, SKBR3 cells; conditions: Homo sapiens, SK-BR-3, 72 h
How it was run: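 Viability measured via CTG luminescence following roughly 72 hours of compound exposure at 37° C. Dosing used a 10 um starting concentration diluted 1:4 over 10 points; percent-of-vehicle data fitted with a variable-slope four-parameter model for IC50.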

[7] = MKN-1, MKN1 (PI3Kα E545K mutant) cells, inhibition of pAKT (pS473) formation, approximately one hour or 24 hours treatment, read-out: MKN1 (E545K) pAKT IC50
[8] = T47D (PI3Kα H1047R mutant) cells, inhibition of pAKT (pS473) formation, approximately one hour or 24 hours treatment, read-out: T47D pAKT (H1047R mutant) IC50
[9] = MKN-1, MKN1 (PI3Kα E545K mutant) cells, CellTiter-Glo, approximately 72 hours, read-out: MKN1 (E545K) Viability IC50
[10] = T47D (PI3Kα H1047R mutant) cells, CellTiter-Glo, approximately 72 hours, read-out: T47D (H1047R mutant) Viability IC50
[11] = SKBR3 (PI3Kα wild type) cells, CellTiter-Glo, approximately 72 hours, read-out: SKBR3 (WT) Viability IC50
[12] = MKN-1, 72 h, read-out: MKN1 (E545K) Viability IC50 (nM)
[13] = read-out: T47D (H1047R mutant) Viability IC50 (nM)
[14] = read-out: SKBR3 (WT) Viability IC50 (nM)
[15] = MKN-1, read-out: MKN1 (E545K) pAKT IC50 (nM)
[16] = read-out: T47D pAKT (H1047R mutant) IC50 (nM)

SMILES | IC50 [1] | IC50 [2, 7] | IC50 [3, 8] | IC50 [4, 9] | IC50 [5, 10] | IC50 [6, 11] | IC50 [4, 12] | IC50 [5, 13] | IC50 [6, 14] | IC50 [2, 15] | IC50 [3, 16]
Cc1cc(C(C)Nc2cccc(O)c2C(=O)O)c2nc(N3CCCCC3)cc(=O)n2c1 (stereo not shown) [Example 3-4, 2-hydroxy-6-((1-(7-methyl-4-oxo-2-(piperidin-1-yl)-4H-pyrido[1,2-a]pyrimidin-9-yl)ethyl)amino)benzoic acid] | > 10000 nM | 8830 nM | 2280 nM |  |  |  |  |  |  |  | 
C=CC(=O)N(C)C(C)c1cc(C)cn2c(=O)cc(N3CCCCC3)nc12 (stereo not shown) [Example 4-2, N-methyl-N-(1-(7-methyl-4-oxo-2-(piperidin-1-yl)-4H-pyrido[1,2-a]pyrimidin-9-yl)ethyl)acrylamide] | > 10000 nM | > 10000 nM | > 10000 nM | > 10000 nM | > 10000 nM | > 10000 nM |  |  |  |  | 
Cc1cc(C(C)Nc2ccccc2C(F)(F)CO)c2nc(N3CCCCC3)cc(=O)n2c1 (stereo not shown) [Example 3-20, 9-(1-((2-(1,1-difluoro-2-hydroxyethyl)phenyl)amino)ethyl)-7-methyl-2-(piperidin-1-yl)-4H-pyrido[1,2-a]pyrimidin-4-one] | > 10000 nM | > 10000 nM | 1120 nM | > 10000 nM | > 10000 nM | > 10000 nM |  |  |  |  | 
COC(=O)c1ccccc1NC(C)c1cc(C)cn2c(=O)cc(N3CCCCC3)nc12 (stereo not shown) [Example 3-12, methyl 2-((1-(7-methyl-4-oxo-2-(piperidin-1-yl)-4H-pyrido[1,2-a]pyrimidin-9-yl)ethyl)amino)benzoate] | 44.3 nM | > 10000 nM | 1970 nM | > 10000 nM | 5760 nM | > 10000 nM |  |  |  |  | 
Cc1cc(C(C)Nc2ccccc2C(=O)O)c2nc(C)cc(=O)n2c1 (stereo not shown) [Example 6-1, 2-((1-(2,7-dimethyl-4-oxo-4H-pyrido[1,2-a]pyrimidin-9-yl)ethyl)amino)benzoic acid] | > 10000 nM |  |  |  |  |  | > 10000 nM | > 10000 nM | > 10000 nM | > 10000 nM | 3370 nM
Cc1cc(C(C)Nc2ccccc2C(=O)O)c2nc(-c3ccccc3)cc(=O)n2c1 (stereo not shown) [Example 7-1, 2-((1-(7-methyl-4-oxo-2-phenyl-4H-pyrido[1,2-a]pyrimidin-9-yl)ethyl)amino)benzoic acid] | 6650 nM |  |  |  |  |  | > 10000 nM | 3140 nM | > 10000 nM | 6420 nM | 13.3 nM
Cc1cc(C(C)Sc2ccccc2C(=O)O)c2nc(N3CCCCC3)cc(=O)n2c1 (stereo not shown) [Example 3-10, 2-((1-(7-methyl-4-oxo-2-(piperidin-1-yl)-4H-pyrido[1,2-a]pyrimidin-9-yl)ethyl)thio)benzoic acid] | > 10000 nM | > 10000 nM | 2510 nM |  | > 10000 nM | > 10000 nM |  |  |  |  | 
Cc1cc(C(C)N(C)c2ccccc2C(=O)O)c2nc(N3CCCCC3)cc(=O)n2c1 (stereo not shown) [Example 3-21, 2-(methyl(1-(7-methyl-4-oxo-2-(piperidin-1-yl)-4H-pyrido[1,2-a]pyrimidin-9-yl)ethyl)amino)benzoic acid] |  | > 10000 nM | > 10000 nM |  |  |  |  |  |  |  | 
Cc1cc(C(C)Nc2ccccc2C(=O)O)c2nc(N3CCC4(CC3)CC4)cc(=O)n2c1 (stereo not shown) [Example 3-22, 2-((1-(7-methyl-4-oxo-2-(6-azaspiro[2.5]octan-6-yl)-4H-pyrido[1,2-a]pyrimidin-9-yl)ethyl)amino)benzoic acid] | > 10000 nM | 3250 nM | 70.5 nM |  | 1640 nM | 799 nM |  |  |  |  | 

Continued, in another order:

IC50 [1] | IC50 [2, 7] | IC50 [3, 8] | IC50 [4, 9] | IC50 [5, 10] | IC50 [6, 11] | SMILES | IC50 [4, 12] | IC50 [5, 13] | IC50 [6, 14] | IC50 [2, 15] | IC50 [3, 16]
> 10000 nM | > 10000 nM | 93.2 nM | > 10000 nM | > 10000 nM | > 10000 nM | Cc1cc(C(C)Nc2ccccc2C(=O)O)c2nc(C3CC3)cc(=O)n2c1 (stereo not shown) [6-2, 2-((1-(2-cyclopropyl-7-methyl-4-oxo-4H-pyrido[1,2-a]pyrimidin-9-yl)ethyl)amino)benzoic acid] |  |  |  |  | 
> 10000 nM | > 10000 nM | 33.9 nM | > 10000 nM | > 10000 nM | > 10000 nM | CC(Nc1ccccc1C(=O)O)c1cccn2c(=O)cc(N3CCC(C)(C)CC3)nc12 (stereo not shown) [Example 9-2, 2-((1-(2-(4,4-dimethylpiperidin-1-yl)-4-oxo-4H-pyrido[1,2-a]pyrimidin-9-yl)ethyl)amino) benzoic acid] |  |  |  |  | 
> 10000 nM | 3060 nM | 10.9 nM | > 10000 nM | 731 nM | > 10000 nM | Cc1c(N2CCCCC2)nc2c(C(C)Nc3ccccc3C(=O)O)cccn2c1=O (stereo not shown) [Example 5-11, 2-((1-(3-methyl-4-oxo-2-(piperidin-1-yl)-4H-pyrido[1,2-a]pyrimidin-9-yl)ethyl)amino)benzoic acid] |  |  |  |  | 
> 10000 nM | > 10000 nM | > 10000 nM |  | 9030 nM | > 10000 nM | Cc1cc([C@H](C)Nc2ccccc2C(=O)O)c2nc(N3CCC(C)(C)CC3)c(C)c(=O)n2c1 (single isomer, unassigned) [Example 5-2] |  |  |  |  | 
3650 nM |  | 7.7 nM |  | 183 nM | > 10000 nM | Cc1cc([C@@H](C)Nc2cscc2C(=O)O)c2nc(N3CCC(F)(F)CC3)c(C#N)c(=O)n2c1 [Example 10-61, (R)-4-((1-(3-cyano-2-(4,4-difluoropiperidin-1-yl)-7-methyl-4-oxo-4H-pyrido[1,2-a]pyrimidin-9-yl)ethyl)amino)thiophene-3-carboxylic acid] |  |  |  |  | 
> 10000 nM |  | 375 nM |  | > 10000 nM | > 10000 nM | Cc1cc([C@@H](C)Nc2ccccc2C(=O)O)c2nc(N3CCS(=O)(=O)CC3)c(C#N)c(=O)n2c1 [Example 10-68, (R)-2-((1-(3-cyano-2-(1,1-dioxidothiomorpholino)-7-methyl-4-oxo-4H-pyrido[1,2-a]pyrimidin-9-yl)ethyl)amino)benzoic acid] |  |  |  |  | 
